For assay [1], the target named is T1, Melanocortin receptor 5 (Homo sapiens, UniProt P33032). The assay is described as follows: Displacement of [I125] NDP-alpha-MSH from human MC5R stably overexpressing in HEK293 cells in presence of [I125] labeled NDP-alpha-MSH treated at 10 uM for 40 mins measured by microbeta 2 microplate counter analysis relative to control. It counts as cell-based.
Assay [2] concerns the target T1, Melanocortin receptor 5. The assay is described as follows: Agonist activity at human MC5R stably overexpressing in HEK293 cells assessed as intracellular acumulation of cAMP level incubated at 10 uM for 30 mins measured by microbeta 2 microplate counter analysis relative to MT-II. It counts as functional, cell-based. The settings on record: filed as agonist. A general note: Cyclic AMP is a second messenger, typically raised through Gs and lowered through Gi signalling.

Assay [3] deals with T2, Melanocortin receptor 3 (Homo sapiens, UniProt P41968). The assay is described as follows: Agonist activity at human MC3R stably overexpressing in HEK293 cells assessed as intracellular acumulation of cAMP level incubated at 10 uM for 30 mins measured by microbeta 2 microplate counter analysis relative to MT-II. The assay is classed as functional, cell-based. The note with it: filed as agonist.

The target of assay [4] is T3, Melanocyte-stimulating hormone receptor (Homo sapiens, UniProt Q01726). The assay is described as follows: Agonist activity at human MC1R stably overexpressing in HEK293 cells assessed as intracellular acumulation of cAMP level incubated at 10 uM for 30 mins measured by microbeta 2 microplate counter analysis relative to MT-II. The assay is classed as functional, cell-based. The settings on record: filed as agonist.
Target sequence in this assay (Q01726 whole entry, looked up): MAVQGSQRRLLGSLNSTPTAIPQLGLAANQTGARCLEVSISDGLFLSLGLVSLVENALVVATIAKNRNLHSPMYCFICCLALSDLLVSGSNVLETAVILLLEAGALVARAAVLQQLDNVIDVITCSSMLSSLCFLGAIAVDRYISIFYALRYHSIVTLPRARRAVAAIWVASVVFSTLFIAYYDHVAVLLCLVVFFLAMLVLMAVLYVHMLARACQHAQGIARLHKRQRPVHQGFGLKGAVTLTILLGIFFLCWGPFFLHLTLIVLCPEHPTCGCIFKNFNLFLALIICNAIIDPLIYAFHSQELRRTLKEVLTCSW

The target of assay [5] is T1, Melanocortin receptor 5. The assay is described as follows: Displacement of [I125] NDP-alpha-MSH from human MC5R stably overexpressing in HEK293 cells in presence of [I125] labeled NDP-alpha-MSH treated at 10 uM for 40 mins measured by microbeta 2 microplate counter analysis. The assay is classed as cell-based.
Assay [6] addresses T2, Melanocortin receptor 3. The assay is described as follows: Agonist activity at human MC3R stably overexpressing in HEK293 cells assessed as intracellular acumulation of cAMP level incubated for 30 mins measured by microbeta 2 microplate counter analysis. The assay is classed as functional, cell-based.
Assay [7] deals with T4, Melanocortin receptor 4 (Homo sapiens, UniProt P32245). The assay is described as follows: Agonist activity at human MC4R stably overexpressing in HEK293 cells assessed as intracellular acumulation of cAMP level incubated for 30 mins measured by microbeta 2 microplate counter analysis. It counts as functional, cell-based.
The target in assay [8] is T3, Melanocyte-stimulating hormone receptor. The assay is described as follows: Agonist activity at human MC1R stably overexpressing in HEK293 cells assessed as intracellular acumulation of cAMP level incubated for 30 mins measured by microbeta 2 microplate counter analysis. It counts as functional, cell-based.
Target sequence in this assay (Q01726 whole entry): as the sequence (Q01726 whole entry, looked up) above
The target in assay [9] is T1, Melanocortin receptor 5. The assay is described as follows: Agonist activity at human MC5R stably overexpressing in HEK293 cells assessed as intracellular acumulation of cAMP level incubated for 30 mins measured by microbeta 2 microplate counter analysis. The assay is classed as functional, cell-based.
For assay [10], the target named is T2, Melanocortin receptor 3. The assay is described as follows: Displacement of [I125] NDP-alpha-MSH from human MC3R stably overexpressing in HEK293 cells in presence of [I125] labeled NDP-alpha-MSH treated at 10 uM for 40 mins measured by microbeta 2 microplate counter analysis. The assay is classed as cell-based.
For assay [11], the target named is T3, Melanocyte-stimulating hormone receptor. The assay is described as follows: Displacement of [I125] NDP-alpha-MSH from human MC1R stably overexpressing in HEK293 cells in presence of [I125] labeled NDP-alpha-MSH treated at 10 uM for 40 mins measured by microbeta 2 microplate counter analysis. It counts as cell-based.
Target sequence in this assay (Q01726 whole entry): as the sequence (Q01726 whole entry, looked up) above
In assay [12] the target is T4, Melanocortin receptor 4. The assay is described as follows: Displacement of [I125] NDP-alpha-MSH from human MC4R stably overexpressing in HEK293 cells in presence of [I125] labeled NDP-alpha-MSH treated at 10 uM for 40 mins measured by microbeta 2 microplate counter analysis. It counts as cell-based.
Assay [13] addresses T3, Melanocyte-stimulating hormone receptor. The assay is described as follows: Displacement of [I125] NDP-alpha-MSH from human MC1R stably overexpressing in HEK293 cells in presence of [I125] labeled NDP-alpha-MSH treated at 10 uM for 40 mins measured by microbeta 2 microplate counter analysis relative to control. The assay is classed as cell-based.
Target sequence in this assay (Q01726 whole entry, looked up): as above
The target in assay [14] is T1, Melanocortin receptor 5. The assay is described as follows: Displacement of [I125] NDP-alpha-MSH from human MC5R stably overexpressing in HEK293 cells in presence of [I125] labeled NDP-alpha-MSH treated for 40 mins measured by microbeta 2 microplate counter analysis. It counts as cell-based.
Assay [15] deals with T3, Melanocyte-stimulating hormone receptor. The assay is described as follows: Displacement of [I125] NDP-alpha-MSH from human MC1R stably overexpressing in HEK293 cells in presence of [I125] labeled NDP-alpha-MSH treated for 40 mins measured by microbeta 2 microplate counter analysis. It counts as cell-based.
Target sequence in this assay (Q01726 whole entry): as the sequence (Q01726 whole entry, looked up) above
In assay [16] the target is T2, Melanocortin receptor 3. The assay is described as follows: Displacement of [I125] NDP-alpha-MSH from human MC3R stably overexpressing in HEK293 cells in presence of [I125] labeled NDP-alpha-MSH treated for 40 mins measured by microbeta 2 microplate counter analysis. The assay is classed as cell-based.
In assay [17] the target is T4, Melanocortin receptor 4. The assay is described as follows: Displacement of [I125] NDP-alpha-MSH from human MC4R stably overexpressing in HEK293 cells in presence of [I125] labeled NDP-alpha-MSH treated for 40 mins measured by microbeta 2 microplate counter analysis. The assay is classed as cell-based.
The target in assay [18] is T2, Melanocortin receptor 3. The assay is described as follows: Displacement of [I125] NDP-alpha-MSH from human MC3R stably overexpressing in HEK293 cells in presence of [I125] labeled NDP-alpha-MSH treated at 10 uM for 40 mins measured by microbeta 2 microplate counter analysis relative to control. The assay is classed as cell-based. The settings on record: filed as agonist.

Each structure is given as a SMILES string. A value given as a limit tells only on which side of the number the result lay.

T1 sequence (P33032 whole entry): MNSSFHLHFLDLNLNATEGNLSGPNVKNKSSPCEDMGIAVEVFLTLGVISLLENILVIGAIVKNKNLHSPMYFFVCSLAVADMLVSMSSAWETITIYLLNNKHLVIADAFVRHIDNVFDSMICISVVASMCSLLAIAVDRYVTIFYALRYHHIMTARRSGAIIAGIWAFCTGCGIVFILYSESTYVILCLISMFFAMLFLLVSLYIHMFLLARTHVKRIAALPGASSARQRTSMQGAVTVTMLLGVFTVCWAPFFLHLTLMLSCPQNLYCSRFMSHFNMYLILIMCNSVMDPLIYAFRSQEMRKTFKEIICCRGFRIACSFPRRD
T4 sequence (P32245 whole entry): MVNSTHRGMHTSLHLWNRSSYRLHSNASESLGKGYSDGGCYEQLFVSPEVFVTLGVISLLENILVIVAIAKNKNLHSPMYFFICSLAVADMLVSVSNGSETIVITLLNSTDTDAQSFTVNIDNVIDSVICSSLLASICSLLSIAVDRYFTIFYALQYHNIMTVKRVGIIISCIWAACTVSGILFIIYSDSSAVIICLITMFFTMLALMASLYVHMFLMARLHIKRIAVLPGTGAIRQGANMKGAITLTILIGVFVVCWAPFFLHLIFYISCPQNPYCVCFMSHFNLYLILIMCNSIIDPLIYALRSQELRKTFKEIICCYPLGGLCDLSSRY
T2 sequence (P41968 whole entry): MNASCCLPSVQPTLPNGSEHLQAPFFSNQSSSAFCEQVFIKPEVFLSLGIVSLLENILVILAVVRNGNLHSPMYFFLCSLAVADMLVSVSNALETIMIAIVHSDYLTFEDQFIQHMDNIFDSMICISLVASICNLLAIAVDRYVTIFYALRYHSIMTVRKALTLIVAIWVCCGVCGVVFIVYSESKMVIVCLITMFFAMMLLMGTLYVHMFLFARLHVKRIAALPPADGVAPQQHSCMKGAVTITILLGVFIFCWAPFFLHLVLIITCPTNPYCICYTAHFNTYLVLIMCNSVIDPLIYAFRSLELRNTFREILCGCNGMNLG

Take `CC(=O)N[C@@H](Cc1cnc[nH]1)C(=O)N[C@H](Cc1ccccc1)C(=O)N[C@@H](CCCNC(=N)N)C(=O)N[C@@H](Cc1c[nH]c2ccccc12)C(N)=O`: in assay [1] (filed as agonist), the Activity came out at 100%. Moreover, the figures for the Emax in assay [2], in [3] and in assay [4] were 63%, 100% and 100%, respectively.

As for `CCCC[C@H](NC(=O)[C@@H](Cc1ccccc1)NC(=O)[C@H](Cc1c[nH]cn1)NC(C)=O)C(=O)N[C@H]1Cc2c([nH]c3ccccc23)CNC1=O`, the IC50 result in assay [5], in assay [10], in [11] and in [12] was “Not Active” each time. For the same compound, the EC50 (as a rule, the concentration giving half of the maximal effect) in assay [6] (read-out: EC50) was above 1000 nM; in assay [7] (read-out: EC50) it was above 1000 nM; in [8] (read-out: EC50) it was above 1000 nM; in assay [9] (hek293), “Not Active”.

Turning to `CC(=O)N[C@@H](Cc1c[nH]cn1)C(=O)N[C@H](Cc1ccccc1)C(=O)N[C@@H](CCCNC(=N)N)C(=O)N[C@H]1Cn2nncc2CNC1=O`, the EC50 in [6] (read-out: EC50) was above 1000 nM; in assay [7] (hek293), “Not Active”; in [8] (read-out: EC50), 136 nM; in assay [9] (hek293) it was “Not Active”. Moreover, the IC50 (as a rule, the concentration that gives 50% inhibition) was “Not Active” in [10], above 1000 nM in [14], 9.6 nM in [15] and “Not Active” in assay [12]. Moreover, the Activity in assay [13] amounted to 21%. Also, the maximal effect (Emax) (commonly the size of the effect at its maximum, as opposed to the concentration needed) in [4] is 96%.

Turning to `CCCC[C@H](NC(=O)[C@@H](Cc1ccccc1)NC(=O)[C@H](Cc1c[nH]cn1)NC(C)=O)C(=O)N[C@H]1Cn2nncc2CNC1=O`, the IC50 entry in [5], in assay [10], in [11] and in [12] was “Not Active” each time. Further, the EC50 entry in assay [6] (hek293), in assay [7] (hek293), in assay [8] (hek293) and in [9] (hek293) was “Not Active” throughout.

Consider `CC(=O)N[C@@H](Cc1c[nH]cn1)C(=O)N[C@H](Cc1ccc(C(F)(F)F)cc1)C(=O)N[C@@H](CCCNC(=N)N)C(=O)N[C@H]1Cc2c([nH]c3ccccc23)CNC1=O`, for which the EC50 result is “Not Active” in assay [6] (hek293), 4.1 nM in assay [7] (read-out: EC50), 37 nM in assay [8] (read-out: EC50) and “Not Active” in assay [9] (hek293). The IC50 is above 1000 nM in [16], 40 nM in assay [14], 81 nM in [15] and 2.5 nM in [17]. Further, in [13], the Activity was 35%. For the same compound, the Emax in assay [4] turned out to be 100%.

For `CC(=O)N[C@@H](Cc1c[nH]cn1)C(=O)N[C@H](Cc1ccccc1)C(=O)N[C@@H](CCCNC(=N)N)C(=O)N[C@H]1Cc2ccccc2CNC1=O`, the IC50 result in assay [5], in [10], in assay [11] and in [12] was “Not Active” each time. Also, the EC50 entry in [6] (hek293), in assay [7] (hek293), in [8] (hek293) and in assay [9] (hek293) was “Not Active” throughout.

For the compound `CC(=O)N[C@@H](Cc1c[nH]cn1)C(=O)N[C@H](Cc1ccccc1)C(=O)N[C@@H](CCCNC(=N)N)C(=O)N[C@H]1Cc2c([nH]c3ccccc23)CNC1=O`, the values for the Activity in [1], in [18] and in assay [13] (filed as agonist) were 39%, 61% and 83%, respectively. Further, the Emax is 61% in assay [2], 66% in [3] and 100% in [4]. For the same compound, the EC50 in [6] (read-out: EC50) came to 166 nM; in assay [7] (read-out: EC50) it was 171 nM; in assay [8] (read-out: EC50), 11.2 nM; in assay [9] (read-out: EC50) it was 165 nM. The IC50 in assay [16] is 165 nM; in assay [14] it was above 1000 nM; in assay [15] it was 34 nM; in [17], 166 nM.

With `CCCC[C@H](NC(C)=N)C(=O)N[C@@H]1NCCCC[C@@H](C(N)=O)NC(=O)[C@H](Cc2c[nH]c3ccccc23)NC(=O)[C@H](CCCNC(=N)N)NC(=O)[C@H](Cc2ccccc2)NC(=O)[C@H](Cc2cnc[nH]2)NC1=O`, the Activity in assay [1] (filed as agonist), in assay [18] and in assay [13] (filed as agonist) was 100% in each case. Besides, the figures for the EC50 in assay [7] (read-out: EC50), in [8] (read-out: EC50) and in [9] (read-out: EC50) were 2 nM, 1 nM and 6 nM, respectively. Also, the IC50 came to 2 nM in assay [16], 4 nM in assay [14] and 1 nM in assay [15].

Take `CCCC[C@H](NC(=O)[C@@H](Cc1ccccc1)NC(=O)[C@H](Cc1c[nH]cn1)NC(C)=O)C(=O)N[C@H]1Cc2ccccc2CNC1=O`: the IC50 entry in assay [5], in [10], in assay [11] and in assay [12] was “Not Active” throughout. For the same compound, the EC50 result in [6] (hek293), in [7] (hek293), in assay [8] (hek293) and in assay [9] (hek293) was “Not Active” each time.

The values are drawn from ChEMBL document CHEMBL5338760, “Ψ and χ Angle Constrains at the C-Terminus Trp Position of the Melanotropin Tetrapeptide Ac-His-d-Phe-Arg-Trp-NH2 Lead to Potent and Selective Agonists at hMC1R and hMC4R” (J Med Chem, 2023).
